Results reported in ChEMBL document CHEMBL1152339, “Use of the in vivo hollow fiber assay in natural products anticancer drug discovery” (J Nat Prod, 2009).

Experiments:
Assay type in all cases: functional
SK-MEL-2 [1] = test: Growth inhibition of human SK-MEL-2 cells xenografted in NCr nu/nu mouse at 25 to 100 mg/kg, ip once daily administered from day 3 to 6 after implantation measured on day 7 by MTT-based hollow-fiber test; conditions: dose mg/kg 3-6; route intraperitoneal
SK-MEL-2 [2] = test: Growth inhibition of human SK-MEL-2 cells xenografted in NCr nu/nu mouse at 25 to 100 mg/kg, sc once daily administered from day 3 to 6 after implantation measured on day 7 by MTT-based hollow-fiber test; conditions: dose mg/kg 3-6; route subcutaneous
KB [3] = test: Growth inhibition of human KB cells xenografted in NCr nu/nu mouse at 25 to 100 mg/kg, ip once daily administered from day 3 to 6 after implantation measured on day 7 by MTT-based hollow-fiber test; conditions: route intraperitoneal
LNCaP [4] = test: Growth inhibition of human LNCAP cells xenografted in ip dosed NCr nu/nu mouse administered once daily from day 3 to 6 after implantation measured on day 7 by MTT-based hollow-fiber test
SW626 [5] = test: Growth inhibition of human SW626 cells xenografted in NCr nu/nu mouse at 25 to 100 mg/kg, sc once daily administered from day 3 to 6 after implantation measured on day 7 by MTT-based hollow-fiber test; conditions: dose mg/kg 3-6; route subcutaneous
KB [6] = test: Growth inhibition of human KB cells xenografted in NCr nu/nu mouse at 25 to 100 mg/kg, sc once daily administered from day 3 to 6 after implantation measured on day 7 by MTT-based hollow-fiber test; conditions: route subcutaneous
SW626 [7] = test: Growth inhibition of human SW626 cells xenografted in ip dosed NCr nu/nu mouse administered once daily from day 3 to 6 after implantation measured on day 7 by MTT-based hollow-fiber test
LNCaP [8] = test: Growth inhibition of human LNCAP cells xenografted in NCr nu/nu mouse at 25 to 100 mg/kg, sc once daily administered from day 3 to 6 after implantation measured on day 7 by MTT-based hollow-fiber test; conditions: route subcutaneous
MCF7 [9] = test: Growth inhibition of human MCF7 cells xenografted in NCr nu/nu mouse at 25 to 100 mg/kg, ip once daily administered from day 3 to 6 after implantation measured on day 7 by MTT-based hollow-fiber test; conditions: dose mg/kg 3-6; route intraperitoneal
SW626 [10] = test: Growth inhibition of human SW626 cells xenografted in NCr nu/nu mouse at 25 to 100 mg/kg, ip once daily administered from day 3 to 6 after implantation measured on day 7 by MTT-based hollow-fiber test; conditions: dose mg/kg 3-6; route intraperitoneal
MCF7 [11] = test: Growth inhibition of human MCF7 cells xenografted in NCr nu/nu mouse at 25 to 100 mg/kg, sc once daily administered from day 3 to 6 after implantation measured on day 7 by MTT-based hollow-fiber test; conditions: dose mg/kg 3-6; route subcutaneous
MCF7 [12] = test: Growth inhibition of human MCF7 cells xenografted in ip dosed NCr nu/nu mouse administered once daily from day 3 to 6 after implantation measured on day 7 by MTT-based hollow-fiber test
LNCaP [13] = test: Growth inhibition of human LNCAP cells xenografted in NCr nu/nu mouse at 25 to 100 mg/kg, ip once daily administered from day 3 to 6 after implantation measured on day 7 by MTT-based hollow-fiber test; conditions: route intraperitoneal
SK-MEL-2 [14] = test: Growth inhibition of human SK-MEL-2 cells xenografted in ip dosed NCr nu/nu mouse administered once daily from day 3 to 6 after implantation measured on day 7 by MTT-based hollow-fiber test
MCF7 [15] = test: Growth inhibition of human MCF7 cells xenografted in NCr nu/nu mouse at 6.25 to 50 mg/kg, ip once daily administered from day 3 to 6 after implantation measured on day 7 by MTT-based hollow-fiber test; conditions: dose mg/kg 3-6; route intraperitoneal
MCF7 [16] = test: Growth inhibition of human MCF7 cells xenografted in NCr nu/nu mouse at 6.25 to 50 mg/kg, sc once daily administered from day 3 to 6 after implantation measured on day 7 by MTT-based hollow-fiber test; conditions: dose mg/kg 3-6; route subcutaneous
KB [17] = test: Growth inhibition of human KB cells xenografted in NCr nu/nu mouse at 0.195 to 1.56 mg/kg, ip once daily administered from day 3 to 6 after implantation measured on day 7 by MTT-based hollow-fiber test; conditions: route intraperitoneal
Col2 [18] = test: Growth inhibition of human Col2 cells xenografted in ip dosed NCr nu/nu mouse administered once daily from day 3 to 6 after implantation measured on day 7 by MTT-based hollow-fiber test
KB [19] = test: Growth inhibition of human KB cells xenografted in NCr nu/nu mouse at 0.195 to 1.56 mg/kg, sc once daily administered from day 3 to 6 after implantation measured on day 7 by MTT-based hollow-fiber test; conditions: route subcutaneous
LNCaP [20] = test: Growth inhibition of human LNCAP cells xenografted in NCr nu/nu mouse at 0.195 to 1.56 mg/kg, sc once daily administered from day 3 to 6 after implantation measured on day 7 by MTT-based hollow-fiber test; conditions: route subcutaneous
Col2 [21] = test: Growth inhibition of human Col2 cells xenografted in NCr nu/nu mouse at 0.195 to 1.56 mg/kg, sc once daily administered from day 3 to 6 after implantation measured on day 7 by MTT-based hollow-fiber test; conditions: route subcutaneous
LNCaP [22] = test: Growth inhibition of human LNCAP cells xenografted in NCr nu/nu mouse at 0.195 to 1.56 mg/kg, ip once daily administered from day 3 to 6 after implantation measured on day 7 by MTT-based hollow-fiber test; conditions: route intraperitoneal
Col2 [23] = test: Growth inhibition of human Col2 cells xenografted in NCr nu/nu mouse at 0.195 to 1.56 mg/kg, ip once daily administered from day 3 to 6 after implantation measured on day 7 by MTT-based hollow-fiber test; conditions: route intraperitoneal

Row | Structure (SMILES) | growth inhibition (GI) (KB [3]) | ED50 (LNCaP [4]) | growth inhibition (GI) (KB [6]) | growth inhibition (GI) (LNCaP [8]) | growth inhibition (GI) (LNCaP [13]) | growth inhibition (GI) (KB [17]) | ED50 (Col2 [18]) | growth inhibition (GI) (KB [19]) | growth inhibition (GI) (LNCaP [20]) | growth inhibition (GI) (Col2 [21]) | growth inhibition (GI) (LNCaP [22]) | growth inhibition (GI) (Col2 [23]) | also measured
1 | CO[C@@]12CC[C@@]3(C)[C@@](CC[C@@H]4[C@@]5(C)CCC[C@]43OC5=O)(C1)C(=O)C2=O | 21% | 1200 nM | 6% | 0% | 50% |  |  |  |  |  |  |  | growth inhibition (GI) (SK-MEL-2 [1]): 15%; growth inhibition (GI) (SK-MEL-2 [2]): 11%; growth inhibition (GI) (SW626 [5]): 16%; ED50 (SW626 [7]): 580 nM; growth inhibition (GI) (MCF7 [9]): 34%; growth inhibition (GI) (SW626 [10]): 0%; growth inhibition (GI) (MCF7 [11]): 0%; ED50 (MCF7 [12]): 870 nM; ED50 (SK-MEL-2 [14]): 1200 nM
2 | C[C@]12CC[C@]3(O)C[C@@]1(CC[C@@H]1[C@@]4(C)CCC[C@]12OC4=O)C(=O)C3=O | 0% | 4500 nM | 0% | 0% | 0% |  |  |  |  |  |  |  | 
3 | CCCCCCCCCCCCC[C@@H]1C[C@@H](O)C[C@]2(CCC3(C=CC(=O)C=C3)O2)O1 [ACULEATIN A] |  |  |  |  |  |  |  |  |  |  |  |  | growth inhibition (GI) (MCF7 [15]): 10%; growth inhibition (GI) (MCF7 [16]): 0%
4 | CC(=O)O[C@@H]1O[C@@H]([C@H]2c3cccc(O)c3C(=O)c3c(O)cc(C)cc32)[C@H](O)[C@@H](O)[C@H]1O [ALVARADOIN E] |  | 140 nM |  |  |  | 40% | 230 nM | 5% | 10% | 6% | 60% | 31% | 
5 | CC(=O)O[C@H]1O[C@H]([C@@H]2c3cccc(O)c3C(=O)c3c(O)cc(C)cc32)[C@H](O)[C@@H](O)[C@H]1O [ALVARADOIN F] |  | 120 nM |  |  |  | 32% | 230 nM | 2% | 3% | 1% | 59% | 21% | 
